Test results published in patent publication US5104859A, “Continuous administration of adenosine to reduce pulmonary vascular resistance” (priority 1990, dated 1992).
Entries after “also recorded” stand apart in the source; their conditions may differ.

Tests used:
[1] = tested on: oxygen consumption and lactate; assay: Oxygen contents, oxygen consumption and lactate during controlled hypotension; format: in vivo, human
Procedure: The correct position was verified by x-ray.
The hemoglobin concentration was determined spectrophotometrically. […] Scand., 120: 171-76 (1984). […] (London), 313: 351-67 (1981). […] Arterial levels of dipyridamole were determined by HPLC. J. Chromatogr., 162: 98-103 (1979). […] Scand. Clin. Lab. Invest., 27:15-19 (1971).
(§1) The mean hypotensive period was 32±8 min.
Oxygen content was derived from the formula SO2*× 1.34×Hb+PO2× […]. Foex et al., Br. J. Anesth., 42: 803-4 (1970). The arteriovenous oxygen content difference (AVDO2) was determined and used to calculate total oxygen consumption (VO2) as the product of AVDO2 and QT. *SO2 =Oxygen saturation.
Oxygen contents, consumptions and lactate concentrations in nine patients before, during and 30 minutes after controlled hypotension are summarized in Table III.

[2] = set-up: species or system human; conditions: in vivo
Procedure: as §1

myocardial blood flow = conditions: 0.05 to about 0.1 mg/kg/min
Source text: Patients requiring abdominal vascular surgery, such as surgery for an aortic aneurysm, frequently also suffer from ischemic heart disease, or insufficient blood flow to the heart tissue, which may present undesirable complications in such surgery.
For such application, the rate of adenosine administration should be such that there is no more than a 10-20 per cent reduction in blood pressure.

platelets = assay: Platelet protection during cardiopulmonary bypass; format: in vivo, human
Procedure: Twenty-five patients scheduled for coronary artery bypass surgery were randomly assigned to two groups--one with adenosine infusion (n=13) and the other with placebo infusion (n=12).
Intravenous anesthesia was used, either high-dose fentanyl (100-150 ug/kg) or balanced anesthesia (thiopental, fentanyl, diazepam and N2 O/O2.
During cardiopulmonary bypass (CPB), mean arterial blood pressure (MABP) above 70 mmHg was treated with the vasodilator sodium nitroprusside (SNP), except in the final phase or rewarming. CPB was performed with SARN roller pump and a Shiley oxygenator (100A) primed with 2000 ml crystalloid solution (75 mg heparin). The perfusion rate was kept at approximately […] body surface. Moderate hypothermia (25° C.) was induced. Cardioplegia was obtained with Ringer's solution (with added potassium up to 20 mM/1). Heparin (3 mg/kg) was administered as a bolus injection before cannulation. The heparin effect was controlled by measurements of activated clotting time. (Hemocron® Int. Technidyne Corp, USA). […] At the termination of CPB, the heparin effect was antagonized with protamine (c. 1.3 mg/mg heparin). ACT was checked 10-20 min after the protamine injection. ACT values 120 sec were considered satisfactory.
Platelet count (Linson 431 A cell counter) and hematocrit were determined in arterial samples before anesthesia, after thoracotomy, during CPB at 10, 20, 40, 60, 80 and 100 min, 30 min after CPB and on the postoperative day. Platelet counts were expressed in percentage of preanesthesia levels and were corrected for hemodilution. MABP was monitored continuously via a catheter introduced in the radial artery. All patients received hypertonic mannitol (1-1.5 g/kg) during CPB and urine production was calculated as ml/.min of CPB (Table VI). […]
(§2) Statistical significance (controls v. adenosine group) was determinted with Student's t-test for unpaired data. For significance within the groups the Wilcoxon Rank Sum test was used. p […] 0.05 was regarded as significant.

[3] = Plasma adenosine and metabolite concentrations during cardiopulmonary bypass (HPLC); conditions: in vivo; for concentration: human, iv
Procedure: In six cases the plasma adenosine levels were determined by high performance liquid chromatography (HPLC) (Fredholm and Sollevi, J. Physiol. (London), 313: 351-67 (1981) in arterial and in venous (venous lines to the oxygenator) blood. The adenosine metabolites inosine, hypoxanthine and uric acid were also determined by HPLC. The samples were collected as previously described (Sollevi, Acta. Physiol. Scand., 121: 165-72 (1984) at the intervals of 10, 20, 40 and 80 minutes during CPB and 20 minutes after CPB.
as §2

[4] = Plasma half-life of adenosine; format: in vivo
[5] = tested on: pulmonary vascular resistance
[6] = Control 2, 30 min after hypotension

In the case of `Nc1ncnc2c1ncn2[C@@H]1O[C@H](CO)[C@@H](O)[C@H]1O` [adenosine], the “decrease in AVDO2” value [1] is reported as 37±5%, the “decrease in cerebral AVDO2” value [1] is reported as 37±13% and the “decrease of VO2” value [1] is reported as 13±4%. For the same molecule, the “Arterial lactate concentration (La)” value [1, 6] was 1.82 ± 0.20 mmol per liter, the “Arterial oxygen tension (PaO2)” value [1, 6] was 93.0 ± 5.2 mmHg and the “Jugular arteriovenous lactate content difference (AVDj La)” value [1, 6] was -0.06 ± 0.04 mmol per liter. The “Jugular arteriovenous oxygen content difference (AVDj O2)” value [1, 6] was 74.9 ± 7.7 ml. per liter, the “Total arteriovenous oxygen content difference (AVDT O2)” value [1, 6] was 46.8 ± 3.2 ml per liter and the “Total oxygen consumption (VT O2)” value [1, 6] was 235 ± 16 ml per mm. The “arterial lactate concentration” value ([1]; during / after hypotension) was “not affected; also recorded: minor increase”, the “Arterial lactate concentration (La)” value ([1]; during adenosine) was 1.73 ± 0.20 mmol per liter and the “Arterial oxygen tension (PaO2)” value ([1]; during adenosine) was 97.5 ± 9.0 mmHg. The “Jugular arteriovenous lactate content difference (AVDj La)” value ([1]; during adenosine) was -0.05 ± 0.05 mmol per liter, the “Jugular arteriovenous oxygen content difference (AVDj O2)” value ([1]; during adenosine) was 58.1 ± 14.1 ml. per liter and the “Total arteriovenous oxygen content difference (AVDT O2)” value ([1]; during adenosine) was 29.3 ± 2.5 ml per liter. The “Total oxygen consumption (VT O2)” value ([1]; during adenosine) was 193 ± 16 ml per mm, the “arterial oxygen tension” value ([1]; during hypotension) was “remained unchanged” and the “arterio-jugular lactate content difference” value ([1]; during hypotension) was “unaltered”. The “ECG the day after the operation” value [2] was “unchanged”, the “increase of cardiac output” value (myocardial blood flow) was 10 to 20% and the “reduction of blood pressure” value (myocardial blood flow) was 10 to 20 per cent. For the same molecule, the oxygen consumption (myocardial blood flow; words) was “without change in oxygen consumption”, the “intergroup difference in platelet counts” value (platelets; 60 min to end of CPB and 30 min after CPB) was “significant intergroup difference in platelet counts” and the “infusion rate effective in protecting platelets” value (platelets; cardiopulmonary bypass) was “about 100 ug/kg/min”. The “Platelet Count; % of Awake Count” value (platelets; during CPB, 10 minutes) was 96 % of Awake Count, the “Platelet Count; % of Awake Count” value (platelets; during CPB, 20 minutes) was 87 % of Awake Count and the “Platelet Count; % of Awake Count” value (platelets; during CPB, 40 minutes) was 85 % of Awake Count. The “Platelet Count; % of Awake Count” value (platelets; during CPB, 60 minutes) was 91 % of Awake Count, the “Platelet Count; % of Awake Count” value (platelets; during CPB, 80 minutes) was 100 % of Awake Count and the “Platelet Count; % of Awake Count” value (platelets; during CPB, 100 minutes) was 97 % of Awake Count. The “initial platelet reduction” value (platelets; during adenosine infusion) was “small, and was significant only at 20 and 40 minutes on CPB”, the “Platelet Count; % of Awake Count” value (platelets; post CPB, 30 minutes) was 88 % of Awake Count and the “Platelet Count; % of Awake Count” value (platelets; post CPB, 24 hours) was 60 % of Awake Count. The concentration [3] was 2000 to 10000 nM, the concentration ([3]; 20 min) was 400 ± 100 nM and the Arterial concentration [3] was 0.3 ± 0.1 µM. The “arterial levels” value [3] was “approximately doubled”, the half-life [4] was under 10 s and the “pulmonary vascular resistance in induced pulmonary hypertension” value ([5]; intravenous, hypoxic ventilation during anesthesia) was “marked reduction”. For the same molecule, the “systemic vasodilator effects, cardiac output, arterial oxygen at doses lowering pulmonary resistance” value ([5]; pig, in vivo) was “commonly do not result in detectable vasodilator effects or effects on cardiac output or arterial oxygen function”.
